Results as given in patent publication US8633232B2, “Compounds, compositions and methods of using same for modulating uric acid levels” (Ardea Biosciences, Inc., priority 2008, dated 2014).
Counter-ions that a name gives are not always drawn. Each block holds one molecule with its values, some of them ahead of it.

Key:
[1] = physchem; conditions: for Solubility: 22° C., 24 hours
Description: When it appeared the saturation point was being reached, addition was stopped, and the eppendorf vial was shaken at a constant speed of 1000 rpm at 22° C. for 24 hours. The tubes were then centrifuged for 5 minutes at 10-15,000 rpm, and checked for precipitation. Samples were diluted with acetonitrile/water, (1/1) (or iso-propyl alcohol for hexane) and analyzed by HPLC against known standards.

[2] = system: healthy adult male human volunteers; assay: In vivo uric acid lowering activity, multiple ascending dose placebo-controlled study
Description: 16 healthy male individuals, aged 18-45 years inclusive, with a body mass index (BMI) within 18-30 kg/m^2 inclusive, having provided a written informed consent, non smokers for at least 6 months, not using any drug treatment for 2 weeks before screening (2 months for enzyme-inducing drugs) except occasional Acetaminophen. The individuals were confined at the clinical site beginning the day before dose administration until 72 hours after the final dose administration on Day 17 and returned for a follow-up visit on Day 21±1.
Matching placebo capsules were supplied as size 2 gelatin capsules. Individuals were randomized to receive the same number of placebo capsules as administered to the active individuals.
Capsules (active or placebo) were administered orally with 240 mL water 30 min after a standard breakfast (morning dose) and dinner (evening dose) for 14 days.
16 individuals (8 individuals [6 active and 2 placebo] per dose group). • a. Group 1: Placebo • b. Group 2: 300 mg (3×100-mg capsules) example 1 b.i.d. • c. Group 3: 500 mg (5×100-mg capsules) example 1 b.i.d.
Blood was collected from the individuals on days 0, 3, 7, 14 and at follow-up. Serum uric levels were measured using standard automated procedures. The results are shown in the table below (uric acid levels in μmol/L).

[3] = In vitro metabolic stability in rat liver microsomes; assay type: in vitro ADME; conditions: 1 uM test compound, 1 mg/mL RLM, 1 mM NADPH, 30 minute incubation at 37° C.
Description: (§1) In vitro metabolic stability was assessed in rat and human liver microsomes (RLM/HLM). The incubation mixer contained the following: 1 uM test compound, 1 mg/mL HLM/RLM, 100 mM potassium phosphate buffer at pH 7.4, 1 mM NADPH and 5 mM MgCl2. This mixture was preincubated for 3 min before the 30 minute incubation at 37° C. The reaction was initiated with the addition of NADPH and terminated by the addition of equal volume of acetonitrile with internal standard. Incubation samples without NADPH were used as control samples. After vortexing and centrifugation, the supernatant was injected onto LC-MS/MS for quantitation.

[4] = molecular target: T1, hURAT1 Transporter (Homo sapiens, UniProt Q96S37); assay: Uric Acid Uptake Assay; assay type: cell-based; conditions: HEK293/urat1 cells; C14 Uric Acid 40 μM; 10 minutes at room temperature
T1 construct: Full-length human URAT1 gene (SLC22A12) was subcloned from plasmid pCMV6-XL5
T1 sequence (Q96S37 1-553): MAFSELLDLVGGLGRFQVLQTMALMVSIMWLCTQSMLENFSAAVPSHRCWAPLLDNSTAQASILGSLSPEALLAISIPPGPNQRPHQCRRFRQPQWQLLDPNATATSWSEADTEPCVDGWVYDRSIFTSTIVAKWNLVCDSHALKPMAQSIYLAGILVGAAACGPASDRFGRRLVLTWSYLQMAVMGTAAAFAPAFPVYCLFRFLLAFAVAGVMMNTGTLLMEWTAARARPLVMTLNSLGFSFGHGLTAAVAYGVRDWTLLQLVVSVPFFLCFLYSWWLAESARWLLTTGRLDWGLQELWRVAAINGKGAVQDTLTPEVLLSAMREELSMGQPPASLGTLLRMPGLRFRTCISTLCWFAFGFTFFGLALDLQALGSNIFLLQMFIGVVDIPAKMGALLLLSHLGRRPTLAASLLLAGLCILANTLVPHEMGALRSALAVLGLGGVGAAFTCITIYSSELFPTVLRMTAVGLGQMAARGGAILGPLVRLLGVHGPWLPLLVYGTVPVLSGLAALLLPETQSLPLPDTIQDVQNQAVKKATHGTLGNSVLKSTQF
Source text: Creation of Stable Cell Lines Expressing hURAT1 Transporter: Full-length human URAT1 gene (SLC22A12) was subcloned from plasmid pCMV6-XL5 (Origene) into eukaryotic expression plasmid pCMV6/Neo (Origene) using Not I restriction sites. Gene sequencing confirmed the sequence of hURAT1 as outlined in Genbank (Accession #NM_144585.2). HEK293 human embryonic kidney cells (ATCC#CRL-1573) were propagated in EMEM tissue culture medium as described by ATCC in an atmosphere of 5% CO2 and 95% air. Transfections of HEK293 cells with the pCMV6/Neo/URAT1 construct were performed using L2000 transfection reagent (Invitrogen) as described by the manufacturer. After 24 h the transfected cells were split into 10 cm tissue culture plates and grown for 1 day after which the medium was replaced with fresh growth medium containing G418 (Gibco) at 0.5 mg/ml final concentration. Drug-resistant colonies were selected after approximately 8 days and then tested for ^14C-uric acid transport activity. The HEK293/urat1 cells are plated on Poly-D-Lysine Coated 96-well Plates at a density of 75,000 cells per well.
Cells were grown overnight (20-26 hours) at 37° C. in an incubator. Plates were allowed to come to room temperature and media was washed out with one wash of […] of Wash Buffer (125 mM Na Gluconate, 10 mM Hepes ph 7.3). Compound or vehicle is added in assay buffer with C14 Uric Acid for a final concentration of 40 μM Uric Acid with a specific activity of 54 mCi/mmol. Assay Buffer is 125 mM Sodium Gluconate, 4.8 mM Potassium Gluconate, 1.2 mM Potassium phosphate, monobasic, 1.2 mM magnesium sulfate, 1.3 mM Ca Gluconate, 5.6 mM Glucose, 25 mM HEPES, pH 7.3. Plates were incubated at room temperature for 10 minutes then washed 3 times with 50 μl Wash Buffer and 3 times with 250 μl Wash Buffer. Microscint 20 Scintillation Fluid was added and plates were incubated overnight at 45° C. to equilibrate. Plates are then read on the TopCount Plate Reader and an EC50 value generated. (See Enomoto et al, Nature, 2002, 417, 447-451 and Anzai et al, J. Biol. Chem., 2004, 279, 45942-45950.).
Compounds prepared as described herein, were examined according to the procedure described above and EC50 values generated. […] (N/A means data not available).

[5] = In vitro metabolic stability in human liver microsomes; assay type: in vitro ADME; conditions: 1 uM test compound, 1 mg/mL HLM, 1 mM NADPH, 30 minute incubation at 37° C.
Description: as §1

[6] = 300 mg b.i.d. oral, Day 3, n = 6, serum
[7] = 300 mg b.i.d. oral, Day 7, n = 6, serum
[8] = 300 mg b.i.d. oral, Day 14, n = 6, serum
[9] = 300 mg b.i.d. oral, Follow up, n = 6, serum
[10] = 500 mg b.i.d. oral, Day 7, n = 6, serum
[11] = 500 mg b.i.d. oral, Day 14, n = 6, serum
[12] = 500 mg b.i.d. oral, Follow up, n = 6, serum

Compound: O=C(CSc1nnc(Br)n1-c1ccc(C2CC2)c2ccccc12)Nc1ccc(C(=O)[O-])cc1Cl.[K+] [4-(2-(5-bromo-4-(4-cyclopropylnaphthalen-1-yl)-4H-1,2,4-triazol-3-ylthio)acetamido)-3-chlorobenzoic acid, potassium salt]
Uric acid (μmol/L) MEAN [2, 6]: -100.3229 µmol/L
Uric acid (μmol/L) MEDIAN [2, 6]: -101.4134 µmol/L
Uric acid (μmol/L) MEAN [2, 7]: -126.2959 µmol/L
Uric acid (μmol/L) MEDIAN [2, 7]: -119.8522 µmol/L
Uric acid (μmol/L) MEAN [2, 8]: -121.2401 µmol/L
Uric acid (μmol/L) MEDIAN [2, 8]: -104.9822 µmol/L
Uric acid (μmol/L) MEAN [2, 9]: -2.2801 µmol/L
Uric acid (μmol/L) MEDIAN [2, 9]: 0.8922 µmol/L
Uric acid (μmol/L) MEDIAN ([2]; 500 mg b.i.d. oral, Day 3, n = 6, serum): -112.1198 µmol/L
Uric acid (μmol/L) MEAN [2, 10]: -127.6837 µmol/L
Uric acid (μmol/L) MEDIAN [2, 10]: -144.2390 µmol/L
Uric acid (μmol/L) MEAN [2, 11]: -111.8224 µmol/L
Uric acid (μmol/L) MEDIAN [2, 11]: -124.9080 µmol/L
Uric acid (μmol/L) MEAN [2, 12]: 27.2617 µmol/L
Uric acid (μmol/L) MEDIAN [2, 12]: 27.3608 µmol/L

Compound: CCOC(=O)CSc1nncn1-c1c(C)cc(C)c2c1CCCC2
EC50 [4]: 1 to 30 µM

Compound: Cc1cc(C)c2ccccc2c1-n1c(SCC(=O)O)nnc1C(F)F
EC50 [4]: 1 to 30 µM

Compound: Nc1nnc(SCC(=O)O)n1-c1ccc(C2CC2)c2ccccc12
EC50 [4]: 1 to 30 µM

Compound: CCCSc1nnc(Br)n1-c1ccc(C2CC2)c2ccccc12
EC50 [4]: 1 to 30 µM

Compound: CCOC(=O)CSc1nnc(C(F)(F)F)n1-c1c(C)cc(C)c2c1CCCC2 [ethyl 2-(4-(2,4-dimethyl-5,6,7,8-tetrahydronaphthalen-1-yl)-5-(trifluoromethyl)-4H-1,2,4-triazol-3-ylthio)acetate]
EC50 [4]: > 30 µM

Compound: Cc1nnc(SCC(=O)O)n1-c1ccc(N(C)C)c2ccccc12
EC50 [4]: > 30 µM

Compound: Cc1ccc(-n2cnnc2SCC(=O)O)c2c1NCCC2
EC50 [4]: > 30 µM

Compound: O=C(O)CCCSc1nnc(Br)n1-c1ccc(C2CC2)c2ccccc12
EC50 [4]: 0.001 to 1 µM

Compound: COc1ccc2c(Br)ccc(-n3c(Br)nnc3SCC(=O)O)c2c1
EC50 [4]: 1 to 30 µM

Compound: Cc1nnc(SCC(=O)O)n1-c1cc(Cl)ccc1Cl
EC50 [4]: > 30 µM

Compound: COc1ccc(-n2c(SCC(=O)O)nnc2C(F)(F)F)c2c1CCCC2
EC50 [4]: 1 to 30 µM

Compound: CCOC(=O)CSc1nnc(C(F)F)n1-c1ccc(C)c2c1CCCN2
EC50 [4]: > 30 µM

Now from value to molecule:

solubility at 24 h ([1]; 22 °C, pH 4.85, water, thermodynamic from solid, Solubility (mg/mL)): 49200 µg/mL
Compound: O=C(O)CSc1nnc(Br)n1-c1ccc(C2CC2)c2ccccc12 [Example 104, Sodium 2-(5-bromo-4-(4-cyclopropylnaphthalen-1-yl)-4H-1,2,4-triazol-3-ylthio)acetate]

Solubility ([1]; Acetone): 260 µg/mL
Solubility ([1]; DMSO): ~54000 µg/mL
Solubility ([1]; EtOAc): 55 µg/mL
Solubility ([1]; Ethanol): 9100 µg/mL
Solubility ([1]; IPA): 1600 µg/mL
Solubility ([1]; PEG-400): 2400 µg/mL
Compound: O=C(O)CSc1nnc(Br)n1-c1ccc(C2CC2)c2ccccc12 [Piperazine salt, 2-(5-bromo-4-(4-cyclopropylnaphthalen-1-yl)-4H-1,2,4-triazol-3-ylthio)acetate]

Liver Microsome Stability % Remaining Rat [3]: 98 ± 0.1%
EC50 [4]: 0.001 to 1 µM
Liver Microsome Stability % Remaining Human [5]: 97 ± 2%
Compound: CC(C)(Sc1nnc(Br)n1-c1ccc(C2CC2)c2ccccc12)C(=O)O [Example 3, 2-(5-Bromo-4-(4-cyclopropylnaphthalen-1-yl)-4H-1,2,4-triazol-3-ylthio)-2-methylpropanoic acid]

EC50 [4]: 0.001 to 1 µM
Compound: CCc1ccc(-n2c(Br)nnc2SC(C)(C)C(=O)O)c2ccccc12 [2-(5-bromo-4-(4-ethylnaphthalen-1-yl)-4H-1,2,4-triazol-3-ylthio)-2-methylpropanoic acid]

EC50 [4]: > 30 µM
Compound: CC(C)(Sc1nnc(N)n1-c1ccc(C2CC2)c2ccccc12)C(=O)O [Example 5, 2-(5-amino-4-(4-cyclopropylnaphthalen-1-yl)-4H-1,2,4-triazol-3-ylthio)-2-methylpropanoic acid]

EC50 [4]: > 30 µM
Compound: CC(C)(C)OC(=O)CSc1nnc(Br)n1-c1ccc(C2CC2)c2ccccc12
